Assay results reported in PMC3036843 (Bioconjugate chemistry, 2010).

Key:
L1210FR = settings: for differences in IC50 values against the three cell lines: L1210FR, L1210, WI38, at most
L1210FR cells = test: Internalization of biotin-FITC probe 2 by CFM and flow cytometry; assay type: cell-based, murine; settings: 100 nM
[1] = taxoid released from first-generation mAb-taxoid DDS; cited from earlier work
L1210 = test: cells; settings: Mus musculus, L1210, 72 h, read-out: Cytotoxicities (IC50), L1210
in vitro = settings: human, WI38 human lung fibroblast cells

## SB-T-1214-fluorescein [compound 24]
L1210FR
  differences in IC50 values against the three cell lines: less than 45%
L1210FR; against L1210FR
  times less potent than the parent SB-T-1214: ca. 9 times

## biotin-FITC [compound 2]
L1210FR cells; 4 °C, 3 h versus 37 °C, by flow cytometry
  diminished fluorescence in the cells at 4 °C: ca. 6 times
L1210FR cells; 37 °C, 3 h
  internalization into L1210FR cells (CFM): efficient internalization
L1210FR cells; 37 °C, 3 h, biotin 2 mM pre-incubated 1 h
  decrease in fluorescence after pre-incubation with excess free biotin: ca. 4.5 times
L1210FR cells; 3 h, 37 °C, 0.05 % (w/v) NaN3
  decrease in fluorescence inside the cells in the presence of NaN3: ca. 4 times

## SB-T-12136-SH
[1]
  cytotoxicity, times weaker than the parent taxoid (SB-T-1213): 8 times

## CC(=O)O[C@H]1C(=O)[C@@]2(C)[C@H]([C@H](OC(=O)c3ccccc3)[C@]3(O)C[C@H](OC(=O)[C@H](O)[C@@H](NC(=O)c4ccccc4)c4ccccc4)C(C)=C1C3(C)C)[C@]1(OC(C)=O)CO[C@@H]1C[C@@H]2O [paclitaxel, reference compound]
L1210FR
  differences in IC50 values against the three cell lines: less than 45%
L1210FR; mouse, 72 h
  IC50: 0.121 µM
L1210
  IC50: 0.151 µM
In vitro
  IC50 at 72 h: 0.157 µM

## CC(=O)O[C@@]12CO[C@@H]1C[C@H](O)[C@@]1(C)C(=O)[C@H](OC(=O)C3CC3)C3=C(C)[C@@H](OC(=O)[C@H](O)[C@H](C=C(C)C)NC(=O)OC(C)(C)C)C[C@@](O)([C@@H](OC(=O)c4ccccc4)[C@H]21)C3(C)C [SB-T-1214]
L1210FR; against L1210FR
  times more potent than paclitaxel: ca. 13 times
